From paper PMC4359714 (Naunyn-Schmiedeberg's Archives of Pharmacology, 2015)
Like-named read-outs stand apart in the source and are kept apart here.

Legend:
cutaneous C fibers = assay: Skin-nerve preparation, mechanically induced firing in cutaneous C fibers; design: species or system mouse; settings: 10 μM; sustained force 5-245 mN; compared to vehicle
Text: Adult C57BL/6 mice were obtained from Jackson Laboratories and used for ex vivo skin-nerve preparations. Mice were allowed to acclimate to the animal facility at the Medical College of Wisconsin, an Association for the Assessment and Accreditation of Laboratory Animal […] (AALAC)-accredited facility, for approximately 1 week following shipment. Animals were housed with up to four other cagemates and had ad libitum access to food pellets and hyper-chlorinated water. Mice were housed on a 14:10 h light-dark cycle in cages containing aspen bedding and paper nesting material. Room temperatures averaged 21 °C. Prior to use, animals were briefly anesthetized with inhaled isoflurane and then sacrificed via cervical dislocation.
The mouse saphenous skin-nerve in vitro preparation (Koltzenburg et al. [1997]; Stucky et al. [1999]) was used for electrophysiological recordings of cutaneous terminals of primary afferent fibers in situ. […] Once a unit with a signal to noise ratio >2 was identified, the mechanical threshold was determined using calibrated von Frey filaments (range, 0.44–147.0 mN). […]
Wave forms of action potentials evoked by mechanical stimuli were saved on an oscilloscope for comparison of shape and profile. […] Action potentials were discriminated and counted off-line using a spike histogram software extension. […] All data was also analyzed in a blinded manner.

rat TRPV1 = target: T1, rat TRPV1 (Rattus norvegicus, UniProt O35433); assay: Luminescence (aequorin) readout of intracellular calcium, CHO cells expressing rat TRPV1, capsaicin activation; assay type: cell-based; settings: 0.5 uM capsaicin, read-out: rTRPV1 IC50
T1 construct: expressed in transfected cells; host or cells: CHO, constitutive expression, co-transfected with aequorin
T1 sequence (O35433 whole entry): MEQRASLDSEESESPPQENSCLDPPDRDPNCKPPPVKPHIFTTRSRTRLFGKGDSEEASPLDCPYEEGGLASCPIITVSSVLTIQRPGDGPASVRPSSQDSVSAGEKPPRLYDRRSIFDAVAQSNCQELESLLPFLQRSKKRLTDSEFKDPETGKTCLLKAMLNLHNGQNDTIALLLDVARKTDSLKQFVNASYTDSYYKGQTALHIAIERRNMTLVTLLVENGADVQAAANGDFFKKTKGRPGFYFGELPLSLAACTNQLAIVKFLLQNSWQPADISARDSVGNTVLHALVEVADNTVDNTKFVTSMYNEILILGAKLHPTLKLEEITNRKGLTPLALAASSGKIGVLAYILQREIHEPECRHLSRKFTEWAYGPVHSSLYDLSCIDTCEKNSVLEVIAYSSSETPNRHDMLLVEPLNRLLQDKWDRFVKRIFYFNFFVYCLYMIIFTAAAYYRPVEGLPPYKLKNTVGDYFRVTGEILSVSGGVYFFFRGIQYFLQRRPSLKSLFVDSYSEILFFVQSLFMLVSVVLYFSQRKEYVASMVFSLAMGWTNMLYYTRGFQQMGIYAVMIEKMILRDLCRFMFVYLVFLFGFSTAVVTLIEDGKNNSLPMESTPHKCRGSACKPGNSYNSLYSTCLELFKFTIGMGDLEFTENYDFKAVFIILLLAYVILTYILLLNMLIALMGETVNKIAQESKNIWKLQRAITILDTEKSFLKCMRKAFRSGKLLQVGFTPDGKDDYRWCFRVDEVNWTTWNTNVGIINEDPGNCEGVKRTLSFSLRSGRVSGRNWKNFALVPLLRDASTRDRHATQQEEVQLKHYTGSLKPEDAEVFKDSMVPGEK
Text: (§1) Stable Chinese hamster ovary (CHO) cell lines expressing rat TRPA1, rat TRPM8, rat TRPV3, and human TRPV4 were generated using the tetracycline-inducible T-REx™ expression system from Invitrogen (Carlsbad, CA) and a stable CHO cell line expressing rat TRPV1 was generated using a constitutive expression system (Klionsky et al. [2007]). To enable a luminescence readout based on intracellular increase in calcium (Le Poul et al. [2002]), each cell line was also co-transfected with pcDNA3.1 plasmid containing jelly fish aequorin cDNA. Twenty-four hours before the assay, cells were seeded in 96-well plates and all TRP channel expression, except for TRPV1, was induced with 0.5 ug/mL tetracycline. […] Luminescence was measured by a CCD camera-based FLASH-luminometer built by Amgen, Inc. The following agonists were used to activate TRP channels: 0.5 uM capsaicin for TRPV1, 80 uM allyl isothiocyanate (AITC) for TRPA1, 1 uM icilin or cold buffer (12 °C) for TRPM8, 200 uM aminoethoxydiphenyl borate (2-APB) for TRPV3, and 1 uM 4α-phorbol 12,13-didecanoate (4α-PDD) for TRPV4. Antagonist IC50 values were calculated using GraphPad Prism 4.01 (GraphPad Software Inc, San Diego, CA).

rat TRPA1 = target: T2, rat TRPA1 (Rattus norvegicus, UniProt Q6RI86); assay: Luminescence (aequorin) readout of intracellular calcium, CHO cells expressing rat TRPA1, AITC activation; assay type: cell-based
T2 construct: expressed in transfected cells; host or cells: CHO, T-REx tetracycline-inducible system (Invitrogen), co-transfected with aequorin
T2 sequence (Q6RI86 whole entry): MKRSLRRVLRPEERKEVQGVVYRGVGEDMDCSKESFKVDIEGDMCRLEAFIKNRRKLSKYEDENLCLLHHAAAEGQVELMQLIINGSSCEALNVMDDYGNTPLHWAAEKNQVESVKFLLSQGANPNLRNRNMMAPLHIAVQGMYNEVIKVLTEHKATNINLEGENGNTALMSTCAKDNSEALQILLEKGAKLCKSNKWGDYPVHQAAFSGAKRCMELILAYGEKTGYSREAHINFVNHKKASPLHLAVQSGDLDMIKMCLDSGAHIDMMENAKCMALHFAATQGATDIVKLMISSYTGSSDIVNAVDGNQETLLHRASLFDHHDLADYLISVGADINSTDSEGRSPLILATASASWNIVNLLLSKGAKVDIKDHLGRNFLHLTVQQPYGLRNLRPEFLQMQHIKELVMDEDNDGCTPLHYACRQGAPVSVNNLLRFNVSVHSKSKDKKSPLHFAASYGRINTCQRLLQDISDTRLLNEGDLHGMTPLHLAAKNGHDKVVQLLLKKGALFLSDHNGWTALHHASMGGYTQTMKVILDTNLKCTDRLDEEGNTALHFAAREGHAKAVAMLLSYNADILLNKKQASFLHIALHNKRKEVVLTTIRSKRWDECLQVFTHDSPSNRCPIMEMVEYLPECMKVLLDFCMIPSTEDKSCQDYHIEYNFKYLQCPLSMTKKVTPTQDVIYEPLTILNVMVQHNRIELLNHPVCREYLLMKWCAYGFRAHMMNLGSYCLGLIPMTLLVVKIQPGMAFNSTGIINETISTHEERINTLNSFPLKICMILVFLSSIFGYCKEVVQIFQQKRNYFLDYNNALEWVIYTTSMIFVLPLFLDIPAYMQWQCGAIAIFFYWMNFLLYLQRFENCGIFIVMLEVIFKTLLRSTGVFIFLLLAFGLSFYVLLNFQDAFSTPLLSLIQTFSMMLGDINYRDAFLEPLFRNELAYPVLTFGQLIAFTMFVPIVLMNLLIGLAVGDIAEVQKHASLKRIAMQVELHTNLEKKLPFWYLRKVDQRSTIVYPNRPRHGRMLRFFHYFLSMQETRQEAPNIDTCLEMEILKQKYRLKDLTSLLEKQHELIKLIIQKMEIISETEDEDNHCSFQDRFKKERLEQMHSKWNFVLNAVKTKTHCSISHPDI
Text: as §1

Structure (SMILES): C[C@H](NC(=O)N1CCc2cccnc2[C@H]1c1ccc(C(F)(F)F)cc1)C(F)(F)F [AMG2850, (R)-8-(4-(trifluoromethyl)phenyl)-N-((S)-1,1,1-trifluoropropan-2-yl)-5,6-dihydro-1,7-naphthyridine-7(8H)-carboxamide]
- effect on mechanical firing in C fibers (cutaneous C fibers): no significant effect
- IC50 (rat TRPV1): > 25 µM
- IC50 (rat TRPA1; 80 uM AITC, read-out: rTRPA1 IC50): > 25 µM
- IC50 (rat TRPA1; agonism, read-out: rTRPA1 agonism IC50): > 25 µM
